Assay results reported in US20040219600A1, “Method for determining sensitivity to environmental toxins and susceptibility to parkinson's disease” (priority 2002, published 2004).

Columns and labels:
[1] = test system: glutathione S-transferase pi2 (GSTp2) mRNA; test: Real time PCR of GSTp2 mRNA in substantia nigra after MPTP; type: in vivo, mouse; settings: for expression of GSTp2: C57B1/6 mice; for GSTp2 levels: SW mice
Source text: Using real time PCR technology we are able to measure relative or absolute mRNA levels in from very small sample pools. The RT-PCR reaction includes a forward primer, a primer with a fluorescent 5′ reporter dye and a 3′ quencher dye, and a reverse primer, constructed to hybridize with the target of interest. The 5′ to 3′ activity of the DNA polymerase cleaves the primer between the reporter and the quencher only if the primer hybridizes to the target. The primer is then displaced from the target, polymerization of the strand continues, and the produce accumulates with each cycle. The exponential amplification of product correlates with the initial number of target molecules when normalized to an endogenous reference, and the threshold cycle calculated (a cycle during which there is an exponential accumulation of produce occurring), as long as the efficiency of the target amplification and the efficiency of the reference amplification are approximately equal. To examine the mRNA expression levels of GSTp2, we used real time PCR analysis to examine baseline levels in C57B1/6 and SW mice. […] The expression pattern in SW mice is different.
Higuchi et al (Higuchi R, et al., Simultaneous Amplification and Detection of Specific DNA Sequences, Biotech. (NY) 10:413-17 (1992)) pioneered the analysis of PCR kinetics by constructing a system that detects PCR products as they accumulate. This “real-time” system includes the intercalator ethidium bromide in each amplification reaction, an adapted thermal cycler to irradiate the samples with ultraviolet light, and detection of the resulting fluorescence with a computer-controlled cooled CCD camera. mRNA amplification produces increasing amounts of double-stranded DNA, which binds ethidium bromide, resulting in an increase in fluorescence. By plotting the increase in fluorescence versus cycle number, this method allows one to make precise quantitative measurements of mRNA expression. […]
Higuchi et al (Higuchi R, et al., Simultaneous Amplification and Detection of Specific DNA Sequences, Biotechnology (N Y) 10:413-17 (1992)) pioneered the analysis of PCR kinetics by constructing a system that detects PCR products as they accumulate. This “real-time” system includes the intercalator ethidium bromide in each amplification reaction, an adapted thermal cycler to irradiate the samples with ultraviolet light, and detection of the resulting fluorescence with a computer-controlled cooled CCD camera. Amplification produces increasing amounts of double-stranded DNA, which binds ethidium bromide, resulting in an increase in fluorescence. By plotting the increase in fluorescence versus cycle number, this method […] allows one to make precise quantitative measurements of mRNA expression.
We will be quantitating levels of glutathione S-transferase pi2 mRNA using this technique in place of traditional Northern blots since we have a limited amount of material to generate mRNA and real-time PCR amplification can give precise results with a small amount of sample material. […] Quantitative measurements are made based on the amount of fluorescence detected by amplification of the intervening primer. Details of this method are presented in numerous papers such as (Freeman W M, et al., Quantitative RT-PCR: Pitfalls and Potential. Biotechniques 26:112-122, 124-115 (1999)) as well as from the ABI website. […]

[2] = test system: postnatal substantia nigra (SN) neurons; test: MPTP-induced cell loss in postnatal substantia nigra cultures; type: cell-based, mouse; settings: for loss of T-positive neurons: MPTP 50×10-9
[3] = test system: embryonic midbrain neurons; settings: C57B1/6 and Swiss-Webster cultures from embryonic midbrain; cited from earlier work
SNpc neurons = test: Count of TH-positive SNpc cells one week after subcutaneous MPTP; settings: 80 mg/kg MPTP SC (4 x 20 mg/kg)
Experimental: C57BL/6J (Jackson Laboratory), Swiss-Webster (SWR, Harlan) and C57BL/6J×SWR used in these experiments were between 3 and 5 months of age. […] All animals were generated within our vivarium at St. Jude Children's Hospital and were maintained on a 12:12 hour light: dark cycle with ad libitum food and water. Animals were treated in accord with Animal Care and Use Committee requirements. The analysis presented here is based on neuroanatomical and morphometric data from 58 animals, all of which were genotyped as described below.
Each animal was given a total of 80 mg/kg of MPTP, using a dosage regimen of 4 equal subcutaneous injections of 20 mg/kg, one given every 2 hours. Mice were monitored over the next 24 hours for the degree of mortality and the presence of seizures. […]
Prior to counting TH-positive cells, the rostral to caudal boundaries of the SNpc were identified (German, D. C., et al., The Neurotoxin MPTP Causes Degeneration of Specific Nucleus A8, A9 and A10 Dopaminergic Neurons in the Mouse, Neurodegeneration, 5:299-312 (1996)). […] TH-positive cells within the SNpc in one section per slide were counted using a 20× objective (total magnification 200×). […] The number of cells in the SNpc from several animals were also counted using unbiased stereological measurements using the Bioquant image analysis system (R & 1 Biometrics, Nashville, Tenn.).

Compound: CN1CC=C(c2ccccc2)CC1 [MPTP, 1-methyl-4-phenyl-1,2,3,6-tetrahydropyridine]
- expression of GSTp2 ([1]; 24 hours after MPTP): 50%
- expression of GSTp2 ([1]; eight hours after the first injection of MPTP): increases
- GSTp2 levels ([1]; 8 hours after administration of MPTP): decrease
- GSTp2 levels ([1]; 24 hours after MPTP): return to baseline levels
- lower induction of glutathione S-transferase pi2 in C57B1/6 mice compared to Swiss-Webster ([1]; forty eight hours after MPTP administration): 50%
- loss of T-positive neurons ([2]; SN cultures derived from SWR mice): 10±3%
- loss of T-positive neurons ([2]; SN cultures from C57B1/6 mice): 50±5%
- percent cell loss in vitro as fraction of the in vivo value ([2]; in vitro SN culture versus in vivo): approximately 80%
- cell death [3]: little cell death
- number of SNpc neurons following MPTP treatment (SNpc neurons; C57B1/6 animals): 3300±200
- number of SNpc neurons following MPTP treatment (SNpc neurons; SWR animals): 5480+/−239
